In the supplement of paper PMC10307832:

How the values were obtained:
Assay in all cases: relative viability (nuclei count vs DMSO), 5 days (fraction); higher = more cells survive
Cediranib + Phenformin = compound: COc1cc2c(Oc3ccc4[nH]c(C)cc4c3F)ncnc2cc1OCCCN1CCCC1 [Cediranib] + N=C(N)NC(=N)NCCc1ccccc1 [Phenformin] (partner 250 µM)
Summary of the method: (§1)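 A single step with final 0.05% Triton X-100, 1% formaldehyde and 1 ug/ml Hoechst fixed the cells and stained nuclei 5 days after treatment. Lung cancer cell lines in 1536-well plates had been treated by pin tool the day after seeding with one drug alone or a fixed anchor-drug dose plus five library-drug doses (not always all listed) in √10 steps, and nuclei were counted on 4× images. Relative viability is the ratio of nuclei in treated wells to nuclei in vehicle wells, taken as the median of duplicate plates.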

Halofuginone + Lapatinib = compound: O=C(C[C@H]1NCCC[C@@H]1O)Cn1cnc2cc(Br)c(Cl)cc2c1=O (racemic) [Halofuginone] + CS(=O)(=O)CCNCc1ccc(-c2ccc3ncnc(Nc4ccc(OCc5cccc(F)c5)c(Cl)c4)c3c2)o1 [Lapatinib] (partner 2 µM)
Summary of the method: as §1

Cediranib + Dasatinib = compound: COc1cc2c(Oc3ccc4[nH]c(C)cc4c3F)ncnc2cc1OCCCN1CCCC1 [Cediranib] + Cc1nc(Nc2ncc(C(=O)Nc3c(C)cccc3Cl)s2)cc(N2CCN(CCO)CC2)n1 [Dasatinib] (partner 0.075 µM)
Summary of the method: as §1

Decitabine + Lapatinib = compound: Nc1ncn([C@H]2C[C@H](O)[C@@H](CO)O2)c(=O)n1 [Decitabine] + CS(=O)(=O)CCNCc1ccc(-c2ccc3ncnc(Nc4ccc(OCc5cccc(F)c5)c(Cl)c4)c3c2)o1 [Lapatinib] (partner 2 µM)
Summary of the method: as §1

Cell Line	relative viability (Cediranib + Phenformin; first compound 0.04 µM)	relative viability (Cediranib + Phenformin; first compound 0.1265 µM)	relative viability (Cediranib + Phenformin; first compound 0.4 µM)	relative viability (Cediranib + Phenformin; first compound 1.265 µM)	relative viability (Cediranib + Phenformin; first compound 4 µM)	relative viability (Halofuginone + Lapatinib; first compound 0.001 µM)	relative viability (Halofuginone + Lapatinib; first compound 0.003162 µM)	relative viability (Halofuginone + Lapatinib; first compound 0.01 µM)	relative viability (Halofuginone + Lapatinib; first compound 0.03162 µM)	relative viability (Halofuginone + Lapatinib; first compound 0.1 µM)	relative viability (Cediranib + Dasatinib; first compound 0.04 µM)	relative viability (Cediranib + Dasatinib; first compound 0.1265 µM)	relative viability (Cediranib + Dasatinib; first compound 0.4 µM)	relative viability (Cediranib + Dasatinib; first compound 1.265 µM)	relative viability (Cediranib + Dasatinib; first compound 4 µM)	relative viability (Decitabine + Lapatinib; first compound 0.04 µM)	relative viability (Decitabine + Lapatinib; first compound 0.1265 µM)	relative viability (Decitabine + Lapatinib; first compound 0.4 µM)	relative viability (Decitabine + Lapatinib; first compound 1.265 µM)	relative viability (Decitabine + Lapatinib; first compound 4 µM)
201T	0.454	0.587	0.422	0.483	0.41	1.02	0.97	1.05	1.04	1.04	0.622	0.67	0.628	0.575	0.582	1.04	1.04	1.13	0.627	0.993
A549	0.135	0.121	0.211	0.153	0.212	0.993	0.973	0.928	0.603	0.203						0.898	0.843	0.49	0.305	0.19
A-427	0.346		0.228	0.308	0.253	1.08	0.977	1.01	1.07	1.07	0.683		0.672	0.596	0.919	0.806	0.745	0.318	0.333	0.229
ABC-1	0.226	0.294	0.243		0.241	1.22	1.32	1.1	1.06	0.912	0.536	0.651	0.448	0.474	0.457	1.27	1.26	1.16	0.861	0.981
BEN	0.266		0.258	0.236	0.253	0.782	0.881	0.861	0.588	0.443	0.331		0.362	0.229	0.332	0.775	0.678	0.358	0.45	0.348
CAL-12T	0.618	0.641	0.597	0.627	0.648	0.765	0.609		0.729	0.561	0.438	0.285	0.504	0.489	0.364	0.607	0.698	0.264	0.504	0.375
COR-L23	0.452	0.39	0.406	0.405	0.482	0.924	1.06	0.95	1.01	0.379	0.522	0.503	0.499	0.57	0.662	0.698	0.51	0.459	0.28	0.23
COR-L 105	0.4	0.58	0.497	0.519	0.523	0.438	0.39	0.317	0.374	0.285	0.346	0.375	0.388	0.352	0.368	0.345	0.317	0.328	0.326	0.28
Calu-6						1.18	1	1.05	0.689	0.176						0.87	0.689	0.316	0.308	0.264
ChaGo-K-1	0.486	0.361	0.452	0.564	0.576						0.524	0.508	0.608	0.578	0.626					
EBC-1						0.223	0.247	0.233	0.266	0.245						0.2	0.163	0.162	0.195	0.152
EKVX	0.212	0.177	0.221	0.259	0.233	0.22	0.213	0.183	0.203	0.202	0.534	0.625	0.564	0.582	0.591	0.211	0.2	0.213	0.184	0.163
EMC-BAC-2	0.507	0.583	0.535	0.484	0.436	0.952	0.888	0.86	0.89	0.807	0.316	0.603	0.365	0.309	0.314	0.926	0.989	0.556	0.67	0.586
EPLC-272H	0.307		0.334		0.253	0.891	0.851	0.976	0.958	0.907	0.303		0.363		0.43	0.749	0.777		0.543	0.518
H3255	0.404		0.337	0.373	0.312	0.272	0.255	0.241	0.259	0.235	0.409		0.332	0.302	0.36	0.226	0.193	0.201	0.164	0.205
HARA	0.331		0.391	0.429	0.454	0.705	0.637	0.721	0.667	0.555	0.193		0.247	0.237	0.239	0.737	0.935	0.443	0.432	0.296
HCC-15	0.491		0.474	0.512	0.509	0.88	0.887	0.829	0.863	0.785	0.662		0.585	0.707	0.608	0.634	0.778	0.223	0.345	0.366
HCC-44	0.195		0.241	0.224	0.201	1.02	1.01	0.955	0.997	0.808						0.84	1	0.298	0.661	0.51
HCC-78	0.712	0.709	0.649	0.607	0.718	0.931	0.698	0.707	0.903	0.137	0.376	0.363	0.405	0.29	0.406	0.819	0.862	0.46	0.411	0.388
